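Where inhibition never reached the appropriate level, the endpoint shown equals the highest concentration tested. Otherwise, values were interpolated linearly from a five-concentration, 48-hour dose response in 96-well plates. TGI: total growth inhibition.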
Legend:
Experiment in all cases: growth of human tumour cells (NCI), 48 h
786-0 renal = test system: 786-0 renal
A498 renal = test system: A498 renal
A549 NSCLC = test system: A549 NSCLC
ACHN renal = test system: ACHN renal
BT-549 breast = test system: BT-549 breast
CAKI-1 renal = test system: CAKI-1 renal
CCRF-CEM leukemia = test system: CCRF-CEM leukemia
COLO 205 colon = test system: COLO 205 colon
DU-145 prostate = test system: DU-145 prostate
EKVX NSCLC = test system: EKVX NSCLC
HCC-2998 colon = test system: HCC-2998 colon
HCT-116 colon = test system: HCT-116 colon
HCT-15 colon = test system: HCT-15 colon
HL-60(TB) leukemia = test system: HL-60(TB) leukemia
HOP-62 NSCLC = test system: HOP-62 NSCLC
HOP-92 NSCLC = test system: HOP-92 NSCLC
HS 578T breast = test system: HS 578T breast
HT29 colon = test system: HT29 colon
IGROV1 ovarian = test system: IGROV1 ovarian
K-562 leukemia = test system: K-562 leukemia
KM12 colon = test system: KM12 colon
LOX IMVI melanoma = test system: LOX IMVI melanoma
M14 melanoma = test system: M14 melanoma
MALME-3M melanoma = test system: MALME-3M melanoma
MCF7 breast = test system: MCF7 breast
MDA-MB-231 breast = test system: MDA-MB-231 breast
MDA-MB-435 = test system: MDA-MB-435
MDA-N = test system: MDA-N
MOLT-4 leukemia = test system: MOLT-4 leukemia
NCI-H226 lung = test system: NCI-H226 lung
NCI-H23 lung = test system: NCI-H23 lung
NCI-H460 lung = test system: NCI-H460 lung
NCI-H522 lung = test system: NCI-H522 lung
NCI/ADR-RES ovarian = test system: NCI/ADR-RES ovarian
OVCAR-3 ovarian = test system: OVCAR-3 ovarian
OVCAR-4 ovarian = test system: OVCAR-4 ovarian
OVCAR-5 ovarian = test system: OVCAR-5 ovarian
OVCAR-8 ovarian = test system: OVCAR-8 ovarian
PC-3 prostate = test system: PC-3 prostate
RPMI-8226 leukemia = test system: RPMI-8226 leukemia
RXF 393 renal = test system: RXF 393 renal
SF-268 CNS = test system: SF-268 CNS
SF-295 CNS = test system: SF-295 CNS
SF-539 CNS = test system: SF-539 CNS
SK-MEL-2 melanoma = test system: SK-MEL-2 melanoma
SK-MEL-28 melanoma = test system: SK-MEL-28 melanoma
SK-MEL-5 melanoma = test system: SK-MEL-5 melanoma
SK-OV-3 ovarian = test system: SK-OV-3 ovarian
SN12C renal = test system: SN12C renal
SNB-19 CNS = test system: SNB-19 CNS
SNB-75 CNS = test system: SNB-75 CNS
SR leukemia = test system: SR leukemia
SW-620 colon = test system: SW-620 colon
T-47D breast = test system: T-47D breast
TK-10 renal = test system: TK-10 renal
U251 CNS = test system: U251 CNS
UACC-257 melanoma = test system: UACC-257 melanoma
UACC-62 melanoma = test system: UACC-62 melanoma
UO-31 renal = test system: UO-31 renal

For `C=C1CCC(O)C/C1=C/C=C1\CCCC2(C)C1CCC2C(C)CCCC(C)C` (centres undefined), which TGI (786-0 renal) is on record?
The TGI was 30.6 µM.

What about the TGI (A498 renal) of the same molecule?
Its TGI is 36.7 µM.

What about the TGI (A549 NSCLC) of the same molecule?
Its TGI is 36.3 µM.

And the TGI (ACHN renal)?
The TGI was 30.6 µM.

And the TGI (BT-549 breast)?
The TGI was 37.4 µM.

And the TGI (CAKI-1 renal)?
The TGI was 35.2 µM.

What about the TGI (CCRF-CEM leukemia) of the same molecule?
Its TGI is over 65.4 µM.

What about the TGI (COLO 205 colon) of the same molecule?
Its TGI is 34 µM.

And the TGI (DU-145 prostate)?
Its TGI is 41.3 µM.

And the TGI (EKVX NSCLC)?
Its TGI is 35.4 µM.

And the TGI (HCC-2998 colon)?
The TGI was 38.6 µM.

And the TGI (HCT-116 colon)?
The TGI was 28.5 µM.

And the TGI (HCT-15 colon)?
The TGI was 35.3 µM.

And the TGI (HL-60(TB) leukemia)?
Its TGI is over 60.2 µM.

And the TGI (HOP-62 NSCLC)?
Its TGI is 35.4 µM.

What about the TGI (HOP-92 NSCLC) of the same molecule?
Its TGI is 33 µM.

And the TGI (HS 578T breast)?
The TGI was 36.4 µM.

What about the TGI (HT29 colon) of the same molecule?
Its TGI is 29.9 µM.

And the TGI (IGROV1 ovarian)?
The TGI was 31.3 µM.

And the TGI (K-562 leukemia)?
Its TGI is over 59.2 µM.

What about the TGI (KM12 colon) of the same molecule?
Its TGI is 38 µM.

What about the TGI (LOX IMVI melanoma) of the same molecule?
The TGI was 34.5 µM.

What about the TGI (M14 melanoma) of the same molecule?
Its TGI is 34.8 µM.

What about the TGI (MALME-3M melanoma) of the same molecule?
The TGI was 38 µM.

What about the TGI (MCF7 breast) of the same molecule?
The TGI was 29.3 µM.

What about the TGI (MDA-MB-231 breast) of the same molecule?
The TGI was 35.6 µM.

What about the TGI (MDA-MB-435) of the same molecule?
Its TGI is 31.3 µM.

What about the TGI (MDA-N) of the same molecule?
Its TGI is 34.3 µM.

And the TGI (MOLT-4 leukemia)?
Its TGI is over 61.5 µM.

What about the TGI (NCI-H226 lung) of the same molecule?
The TGI was 31.3 µM.

What about the TGI (NCI-H23 lung) of the same molecule?
Its TGI is 33.7 µM.

And the TGI (NCI-H460 lung)?
Its TGI is 46.7 µM.

What about the TGI (NCI-H522 lung) of the same molecule?
Its TGI is 33 µM.

And the TGI (NCI/ADR-RES ovarian)?
Its TGI is 34.9 µM.

What about the TGI (OVCAR-3 ovarian) of the same molecule?
The TGI was 35.4 µM.

What about the TGI (OVCAR-4 ovarian) of the same molecule?
The TGI was 35.7 µM.

What about the TGI (OVCAR-5 ovarian) of the same molecule?
The TGI was 37.4 µM.

And the TGI (OVCAR-8 ovarian)?
Its TGI is 33.2 µM.

And the TGI (PC-3 prostate)?
The TGI was 34.3 µM.

And the TGI (RPMI-8226 leukemia)?
Its TGI is 64.9 µM.

What about the TGI (RXF 393 renal) of the same molecule?
The TGI was 33.4 µM.

What about the TGI (SF-268 CNS) of the same molecule?
The TGI was 46.5 µM.

And the TGI (SF-295 CNS)?
The TGI was 35.1 µM.

And the TGI (SF-539 CNS)?
Its TGI is 36.5 µM.

What about the TGI (SK-MEL-2 melanoma) of the same molecule?
Its TGI is 37.2 µM.

What about the TGI (SK-MEL-28 melanoma) of the same molecule?
Its TGI is 30.4 µM.

And the TGI (SK-MEL-5 melanoma)?
Its TGI is 36.3 µM.

What about the TGI (SK-OV-3 ovarian) of the same molecule?
The TGI was 41.9 µM.

And the TGI (SN12C renal)?
The TGI was 30.8 µM.

What about the TGI (SNB-19 CNS) of the same molecule?
Its TGI is 33.2 µM.

And the TGI (SNB-75 CNS)?
Its TGI is 37.6 µM.

What about the TGI (SR leukemia) of the same molecule?
The TGI was over 63.6 µM.

What about the TGI (SW-620 colon) of the same molecule?
The TGI was 31.8 µM.

And the TGI (T-47D breast)?
The TGI was 38.8 µM.

And the TGI (TK-10 renal)?
The TGI was 25.1 µM.

And the TGI (U251 CNS)?
The TGI was 34.4 µM.

What about the TGI (UACC-257 melanoma) of the same molecule?
Its TGI is 32.2 µM.

What about the TGI (UACC-62 melanoma) of the same molecule?
Its TGI is 34.9 µM.

And the TGI (UO-31 renal)?
Its TGI is 28.3 µM.

— PubChem BioAssay (NCI)
